Test results as given in ChEMBL document CHEMBL5543164 (J Med Chem, 2024).

What was measured:
[1] = target: T1, Phosphatidylinositol 4,5-bisphosphate 3-kinase catalytic subunit delta isoform (Homo sapiens, UniProt O00329)
T1 sequence (O00329 whole entry): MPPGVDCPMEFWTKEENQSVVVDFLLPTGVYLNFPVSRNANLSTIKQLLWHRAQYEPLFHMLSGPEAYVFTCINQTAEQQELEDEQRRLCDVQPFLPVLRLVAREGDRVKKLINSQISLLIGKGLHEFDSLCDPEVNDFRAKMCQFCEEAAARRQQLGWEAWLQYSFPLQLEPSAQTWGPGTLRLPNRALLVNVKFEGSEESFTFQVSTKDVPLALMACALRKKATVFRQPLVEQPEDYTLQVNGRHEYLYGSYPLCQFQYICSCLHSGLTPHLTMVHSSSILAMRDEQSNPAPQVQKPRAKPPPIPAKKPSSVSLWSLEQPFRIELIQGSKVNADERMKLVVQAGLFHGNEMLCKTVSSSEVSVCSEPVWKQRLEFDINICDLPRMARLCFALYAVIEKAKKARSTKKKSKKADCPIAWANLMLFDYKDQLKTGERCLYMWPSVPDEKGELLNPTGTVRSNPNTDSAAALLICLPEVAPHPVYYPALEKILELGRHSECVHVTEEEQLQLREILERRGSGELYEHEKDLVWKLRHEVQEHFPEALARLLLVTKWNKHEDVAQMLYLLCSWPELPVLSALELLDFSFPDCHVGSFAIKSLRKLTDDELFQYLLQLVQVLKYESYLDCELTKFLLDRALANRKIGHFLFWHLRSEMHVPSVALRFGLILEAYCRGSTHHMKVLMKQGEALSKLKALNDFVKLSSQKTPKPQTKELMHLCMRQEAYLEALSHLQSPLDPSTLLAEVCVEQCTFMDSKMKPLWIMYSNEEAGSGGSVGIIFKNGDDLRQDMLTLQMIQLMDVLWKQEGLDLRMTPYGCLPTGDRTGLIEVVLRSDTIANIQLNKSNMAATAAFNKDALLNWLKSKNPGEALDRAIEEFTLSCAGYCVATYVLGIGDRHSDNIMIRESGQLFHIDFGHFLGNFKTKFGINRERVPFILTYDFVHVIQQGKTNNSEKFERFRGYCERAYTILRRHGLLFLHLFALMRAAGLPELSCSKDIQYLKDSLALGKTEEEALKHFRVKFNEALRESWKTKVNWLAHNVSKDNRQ

[2] = target: Phosphatidylinositol 4,5-bisphosphate 3-kinase catalytic subunit gamma isoform (Homo sapiens, UniProt P48736); test: Inhibition of PI3Kgamma (unknown origin) by ADP-glo plus luminescence assay
HCT-116 = test: Antiproliferative activity against human HCT-116 cells assessed as inhibition of cell growth incubated for 48 hrs by CCK-8 assay; assay type: functional, cell-based; details: HCT-116, 48 h
[3] = Antiproliferative activity against human L02 cells assessed as inhibition of cell growth incubated for 48 hrs by CCK-8 assay; assay type: toxicity, cell-based
[4] = target: Phosphatidylinositol 4,5-bisphosphate 3-kinase catalytic subunit alpha isoform (Homo sapiens, UniProt P42336); test: Inhibition of PI3Kalpha (unknown origin) by ADP-glo plus luminescence assay
[5] = Selectivity index, ratio of IC50 for antiproliferative activity against human L02 cells assessed as inhibition of cell growth to IC50 for antiproliferative activity against human HepG2 cells assessed as inhibition of cell growth; assay type: toxicity, cell-based; details: L02 cells versus HepG2 cells, read-out: Ratio IC50
[6] = target: Serine/threonine-protein kinase mTOR (Homo sapiens, UniProt P42345)
[7] = target: Phosphatidylinositol 4,5-bisphosphate 3-kinase catalytic subunit beta isoform (Homo sapiens, UniProt P42338)
HeLa = test: Antiproliferative activity against human HeLa cells assessed as inhibition of cell growth incubated for 48 hrs by CCK-8 assay; assay type: functional, cell-based
MDA-MB-231 = test: Antiproliferative activity against human MDA-MB-231 cells assessed as inhibition of cell growth incubated for 48 hrs by CCK-8 assay; assay type: functional, cell-based; details: MDA-MB-231, 48 h
HepG2 = test: Antiproliferative activity against human HepG2 cells assessed as inhibition of cell growth incubated for 48 hrs by CCK-8 assay; assay type: functional, cell-based; details: HepG2, 48 h
MCF7 = test: Antiproliferative activity against human MCF7 cells assessed as inhibition of cell growth incubated for 48 hrs by CCK-8 assay; assay type: functional, cell-based; details: MCF7, 48 h
CNE-2 = test: Antiproliferative activity against human CNE-2 cells assessed as inhibition of cell growth incubated for 48 hrs by CCK-8 assay; assay type: functional, cell-based; details: CNE-2, 48 h

Chain of Phosphatidylinositol 4,5-bisphosphate 3-kinase catalytic subunit beta isoform (P42338 whole entry, canonical isoform): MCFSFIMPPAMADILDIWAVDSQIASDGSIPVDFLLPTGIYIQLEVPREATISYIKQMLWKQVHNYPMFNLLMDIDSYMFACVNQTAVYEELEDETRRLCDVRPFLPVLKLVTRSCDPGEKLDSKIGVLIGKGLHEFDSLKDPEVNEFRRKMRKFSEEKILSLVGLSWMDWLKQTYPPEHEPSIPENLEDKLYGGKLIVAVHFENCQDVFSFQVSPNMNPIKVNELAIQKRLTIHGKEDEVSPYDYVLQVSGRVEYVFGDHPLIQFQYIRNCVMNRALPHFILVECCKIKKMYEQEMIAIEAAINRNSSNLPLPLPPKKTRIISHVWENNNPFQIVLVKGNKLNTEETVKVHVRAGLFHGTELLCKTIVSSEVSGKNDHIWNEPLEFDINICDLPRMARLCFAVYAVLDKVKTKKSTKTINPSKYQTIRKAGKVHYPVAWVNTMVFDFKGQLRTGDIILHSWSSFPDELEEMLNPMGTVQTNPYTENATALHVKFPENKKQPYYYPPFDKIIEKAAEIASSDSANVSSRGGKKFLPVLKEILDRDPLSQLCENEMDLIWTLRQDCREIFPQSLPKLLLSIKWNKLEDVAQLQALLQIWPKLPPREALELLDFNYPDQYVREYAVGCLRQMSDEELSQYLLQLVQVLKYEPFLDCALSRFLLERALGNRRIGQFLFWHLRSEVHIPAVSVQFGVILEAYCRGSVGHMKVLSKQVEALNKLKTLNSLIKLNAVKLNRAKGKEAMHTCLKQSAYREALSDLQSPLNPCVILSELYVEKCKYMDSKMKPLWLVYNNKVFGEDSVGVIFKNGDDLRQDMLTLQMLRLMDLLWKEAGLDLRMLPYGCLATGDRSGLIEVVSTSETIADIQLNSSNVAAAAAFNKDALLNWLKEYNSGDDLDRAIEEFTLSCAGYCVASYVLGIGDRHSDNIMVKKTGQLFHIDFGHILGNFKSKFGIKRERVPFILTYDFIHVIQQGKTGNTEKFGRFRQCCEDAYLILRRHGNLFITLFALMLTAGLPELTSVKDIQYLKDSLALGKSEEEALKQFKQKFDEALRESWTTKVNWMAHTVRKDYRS
Chain of Phosphatidylinositol 4,5-bisphosphate 3-kinase catalytic subunit gamma isoform (P48736 whole entry, canonical isoform): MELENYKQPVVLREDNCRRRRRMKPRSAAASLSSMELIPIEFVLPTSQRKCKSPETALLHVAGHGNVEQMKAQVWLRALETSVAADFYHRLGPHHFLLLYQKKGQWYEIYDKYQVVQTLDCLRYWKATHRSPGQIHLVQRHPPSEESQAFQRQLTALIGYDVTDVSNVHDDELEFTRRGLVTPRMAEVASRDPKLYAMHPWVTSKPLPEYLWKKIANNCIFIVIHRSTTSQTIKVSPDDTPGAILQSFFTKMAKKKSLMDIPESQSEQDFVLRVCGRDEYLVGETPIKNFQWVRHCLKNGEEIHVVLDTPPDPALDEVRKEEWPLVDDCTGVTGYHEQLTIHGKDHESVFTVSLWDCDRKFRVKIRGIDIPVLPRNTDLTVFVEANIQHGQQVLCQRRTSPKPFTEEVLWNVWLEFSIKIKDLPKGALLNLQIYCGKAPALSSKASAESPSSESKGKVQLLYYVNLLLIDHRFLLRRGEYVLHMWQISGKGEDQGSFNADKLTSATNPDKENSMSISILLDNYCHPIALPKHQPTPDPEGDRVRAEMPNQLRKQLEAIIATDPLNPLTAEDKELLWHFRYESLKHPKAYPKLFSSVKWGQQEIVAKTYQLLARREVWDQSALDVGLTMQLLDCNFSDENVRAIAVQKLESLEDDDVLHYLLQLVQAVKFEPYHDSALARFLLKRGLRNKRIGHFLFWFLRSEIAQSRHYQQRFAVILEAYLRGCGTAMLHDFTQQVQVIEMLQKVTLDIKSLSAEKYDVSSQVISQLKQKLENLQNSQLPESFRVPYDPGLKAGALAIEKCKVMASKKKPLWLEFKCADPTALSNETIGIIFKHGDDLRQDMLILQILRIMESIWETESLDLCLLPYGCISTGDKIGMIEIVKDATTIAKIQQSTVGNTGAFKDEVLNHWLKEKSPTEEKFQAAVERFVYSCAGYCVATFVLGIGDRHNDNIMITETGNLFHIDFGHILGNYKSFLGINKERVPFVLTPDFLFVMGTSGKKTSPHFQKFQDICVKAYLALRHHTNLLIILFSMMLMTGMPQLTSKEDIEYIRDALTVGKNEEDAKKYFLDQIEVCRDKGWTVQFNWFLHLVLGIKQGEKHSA
Chain of Phosphatidylinositol 4,5-bisphosphate 3-kinase catalytic subunit alpha isoform (P42336 whole entry, canonical isoform): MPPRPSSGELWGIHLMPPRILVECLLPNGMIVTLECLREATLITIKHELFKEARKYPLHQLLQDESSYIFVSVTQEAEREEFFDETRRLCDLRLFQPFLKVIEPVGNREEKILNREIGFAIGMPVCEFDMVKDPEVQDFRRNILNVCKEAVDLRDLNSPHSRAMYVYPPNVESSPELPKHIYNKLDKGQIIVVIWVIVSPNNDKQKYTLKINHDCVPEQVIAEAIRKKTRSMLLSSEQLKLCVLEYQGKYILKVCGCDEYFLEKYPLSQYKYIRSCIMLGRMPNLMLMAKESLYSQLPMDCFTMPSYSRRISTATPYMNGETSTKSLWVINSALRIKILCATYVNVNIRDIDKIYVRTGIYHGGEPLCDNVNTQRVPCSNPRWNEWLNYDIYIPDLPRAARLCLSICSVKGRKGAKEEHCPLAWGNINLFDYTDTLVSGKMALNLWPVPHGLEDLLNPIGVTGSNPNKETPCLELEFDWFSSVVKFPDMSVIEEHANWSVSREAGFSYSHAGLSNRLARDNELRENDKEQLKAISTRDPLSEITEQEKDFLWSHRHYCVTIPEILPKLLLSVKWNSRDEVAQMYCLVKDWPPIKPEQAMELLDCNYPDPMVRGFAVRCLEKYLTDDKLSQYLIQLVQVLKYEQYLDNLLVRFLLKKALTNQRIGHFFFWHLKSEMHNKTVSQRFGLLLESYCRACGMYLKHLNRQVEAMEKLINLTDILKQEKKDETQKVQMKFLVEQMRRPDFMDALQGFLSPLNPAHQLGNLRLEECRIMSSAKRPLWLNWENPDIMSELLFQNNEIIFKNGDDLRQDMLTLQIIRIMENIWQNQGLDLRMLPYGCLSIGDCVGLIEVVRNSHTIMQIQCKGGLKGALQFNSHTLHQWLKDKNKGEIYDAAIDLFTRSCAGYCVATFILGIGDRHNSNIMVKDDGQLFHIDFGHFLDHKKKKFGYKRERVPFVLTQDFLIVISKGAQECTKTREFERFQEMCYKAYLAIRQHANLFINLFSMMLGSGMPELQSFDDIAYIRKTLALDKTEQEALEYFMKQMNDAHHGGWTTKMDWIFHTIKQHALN

IC50 [1] [nM] | IC50 [2] [nM] | IC50 (HCT-116) [nM] | IC50 [4] [nM] | IC50 [6] [nM] | IC50 [7] [nM] | IC50 (HeLa) [nM] | IC50 (MDA-MB-231) [nM] | IC50 (HepG2) [nM] | IC50 (MCF7) [nM] | SMILES | IC50 at 48 h [3] [nM] | selectivity ratio [5] | IC50 (CNE-2) [nM]
1830 | 1940 | 732 | 354 | 1.7 | 782 | 2150 | 4430 | 130 | 890 | O=C(Nc1ccc(-c2nc(N3CCOCC3)nc(N3C4CCC3COC4)n2)cc1)Nc1ccc2c(c1)COC2=O | 4590 | 35.3 | 230
248 | 162 |  |  |  | 129 |  |  |  |  | O=C(Nc1ccc(-c2nc(N3CCOCC3)nc(N3CCOCC3)n2)cc1)Nc1ccc2c(c1)COC2=O |  |  | 
 |  | 5050 |  | 4 |  | 6030 | 3440 | 5670 | 1740 | C[C@H]1COCCN1c1nc(-c2ccc(NC(=O)Nc3ccc4c(c3)COC4=O)cc2)nc(N2C3CCC2COC3)n1 |  |  | 1080
161 | 228 |  |  |  | 93 |  |  |  |  | O=C(Nc1ccc(-c2nc(N3CCOCC3)nc(N3CCO[C@H](CO)C3)n2)cc1)Nc1ccc2c(c1)COC2=O |  |  | 
